Data: US20240025887A1, “THIENYL AND CYCLOALKYL AMINOPYRIMIDINE COMPOUNDS AS INHIBITORS OF NUAK KINASES, COMPOSITIONS AND USES THEREOF” (Ontario Institute for Cancer Research (OICR), priority 2021, published 2024)
Counter-ions that a name gives are not always drawn.

What was measured:
Format in all cases: biochemical
NUAK1 = target: T1, NUAK1 (Homo sapiens, UniProt O60285); assay: NUAK1 counter screen
T1 sequence (O60285 1-661): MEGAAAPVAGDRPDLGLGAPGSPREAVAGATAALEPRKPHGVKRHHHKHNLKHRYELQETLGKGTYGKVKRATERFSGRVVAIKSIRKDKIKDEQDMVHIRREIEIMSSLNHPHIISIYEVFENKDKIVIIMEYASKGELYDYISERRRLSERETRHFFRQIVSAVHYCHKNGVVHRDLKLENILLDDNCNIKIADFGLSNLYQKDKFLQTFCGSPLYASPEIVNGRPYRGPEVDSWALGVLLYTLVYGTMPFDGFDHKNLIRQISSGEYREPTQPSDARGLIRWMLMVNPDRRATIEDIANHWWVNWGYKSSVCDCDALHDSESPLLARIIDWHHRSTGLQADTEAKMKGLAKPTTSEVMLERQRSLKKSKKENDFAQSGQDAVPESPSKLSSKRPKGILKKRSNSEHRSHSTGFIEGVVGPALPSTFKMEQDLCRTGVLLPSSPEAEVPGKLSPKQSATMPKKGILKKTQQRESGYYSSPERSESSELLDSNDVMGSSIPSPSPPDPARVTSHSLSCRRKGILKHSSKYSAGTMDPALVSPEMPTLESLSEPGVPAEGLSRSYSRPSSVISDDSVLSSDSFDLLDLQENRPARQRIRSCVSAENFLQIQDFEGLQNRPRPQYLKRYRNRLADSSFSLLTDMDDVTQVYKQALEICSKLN
Procedure: (§1) To identify small molecule NUAK inhibitors, a biochemical NUAK2 enzymatic assay was outsourced to Eurofins. This assay was done radiometrically using full-length, recombinant enzyme. NUAK2 (h) was incubated with 8 mM MOPS pH 7.0, 0.2 mM EDTA, 300 μM […], 10 mM magnesium acetate and […] (specific activity and concentration as required). The reaction was initiated by the addition of the Mg/ATP mix. After incubation for 40 minutes at room temperature, the reaction was stopped by the addition of phosphoric acid to a concentration of 0.5%. 10 μL of the reaction was then spotted onto a P30 filter mat and washed four times for 4 minutes in 0.425% phosphoric acid and once in methanol prior to drying and scintillation counting. Compounds were routinely counter screened against Aurora A and NUAK1. The results are shown in Table 1 where IC50s are reported the following ranges: A: 0.1-10 nM; B: 11-100 nM; C: 101-1000 nM; D: >1000 nM for the compounds of Formula I)

NUAK2 (h) = target: T2, NUAK2 (h) (Homo sapiens, UniProt Q9H093); assay: NUAK2 enzymatic assay (radiometric, Eurofins); settings: radiometric, full-length recombinant enzyme
T2 construct: This assay was done radiometrically using full-length, recombinant enzyme; purchased Eurofins
T2 sequence (Q9H093 1-628): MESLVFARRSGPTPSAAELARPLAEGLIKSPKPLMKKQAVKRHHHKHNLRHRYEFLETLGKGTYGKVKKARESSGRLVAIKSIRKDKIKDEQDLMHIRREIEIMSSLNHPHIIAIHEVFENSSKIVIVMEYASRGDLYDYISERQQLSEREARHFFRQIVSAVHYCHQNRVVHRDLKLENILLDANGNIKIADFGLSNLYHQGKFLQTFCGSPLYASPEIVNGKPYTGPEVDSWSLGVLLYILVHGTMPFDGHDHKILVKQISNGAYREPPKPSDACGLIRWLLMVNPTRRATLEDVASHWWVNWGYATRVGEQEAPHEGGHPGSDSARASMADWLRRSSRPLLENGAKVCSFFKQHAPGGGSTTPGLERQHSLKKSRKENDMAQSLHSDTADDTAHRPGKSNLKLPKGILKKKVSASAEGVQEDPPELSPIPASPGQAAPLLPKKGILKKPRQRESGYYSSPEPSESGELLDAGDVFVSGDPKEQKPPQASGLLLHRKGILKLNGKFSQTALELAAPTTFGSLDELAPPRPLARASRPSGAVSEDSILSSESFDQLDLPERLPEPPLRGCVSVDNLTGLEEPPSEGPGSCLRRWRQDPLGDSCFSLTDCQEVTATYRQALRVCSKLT
Procedure: as §1

Aurora A = target: T3, Aurora A (Homo sapiens, UniProt O14965); assay: Aurora A counter screen; settings: read-out: AUR-A (IC50)
T3 sequence (O14965 1-403): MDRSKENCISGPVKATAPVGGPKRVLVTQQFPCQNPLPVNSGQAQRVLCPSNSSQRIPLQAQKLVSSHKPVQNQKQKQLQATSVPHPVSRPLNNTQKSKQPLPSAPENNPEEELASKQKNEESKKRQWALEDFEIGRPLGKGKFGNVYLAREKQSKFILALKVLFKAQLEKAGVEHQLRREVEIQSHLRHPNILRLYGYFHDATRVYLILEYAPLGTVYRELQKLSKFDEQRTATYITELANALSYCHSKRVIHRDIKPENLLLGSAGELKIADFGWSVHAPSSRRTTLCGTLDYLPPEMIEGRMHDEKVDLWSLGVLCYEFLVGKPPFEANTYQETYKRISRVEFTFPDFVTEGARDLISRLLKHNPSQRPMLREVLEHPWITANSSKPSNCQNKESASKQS
Procedure: as §1

| Compound | IC50 (NUAK1) [nM] | IC50 (NUAK2 (h)) [nM] | IC50 (Aurora A) [nM] |
| --- | --- | --- | --- |
| CC(C)N1CCN(c2ccc(Nc3ncc(Cl)c(Nc4ccsc4C(N)=O)n3)c(OC(F)F)c2)CC1 [Compound I-12, 3-((5-chloro-2-((2-(difluoromethoxy)-4-(4-isopropylpiperazin-1-yl)phenyl)amino)pyrimidin-4-yl)amino)thiophene-2-carboxamide hydrochloride] | 0.1 to 10 | 0.1 to 10 | 11 to 100 |
| CCN1CCN(c2ccc(Nc3ncc(Cl)c(Nc4cscc4C(N)=O)n3)c(OC(F)F)c2)CC1 [Compound I-14, 4-((5-chloro-2-((2-(difluoromethoxy)-4-(4-ethylpiperazin-1-yl)phenyl)amino)pyrimidin-4-yl)amino)thiophene-3-carboxamide] | 0.1 to 10 | 0.1 to 10 | 101 to 1000 |
| Cc1cnc(Nc2ccc(N3CCN(C(C)C)CC3)cc2OC(F)F)nc1Nc1ccsc1C(N)=O [Compound I-17, 3-((2-((2-(difluoromethoxy)-4-(4-isopropylpiperazin-1-yl)phenyl)amino)-5-methylpyrimidin-4-yl)amino)thiophene-2-carboxamide] | 11 to 100 | 11 to 100 | 101 to 1000 |
| CN1C[C@H]2C[C@@H]1CN2c1ccc(Nc2ncc(Cl)c(Nc3sccc3C(N)=O)n2)c(OC(F)F)c1 [Compound I-18, 2-((5-chloro-2-((2-(difluoromethoxy)-4-((1R,4R)-5-methyl-2,5-diazabicyclo[2.2.1]heptan-2-yl)phenyl)amino)pyrimidin-4-yl)amino)thiophene-3-carboxamide] | 11 to 100 | 0.1 to 10 | 101 to 1000 |
| CC(C)(C)N1CCN(c2ccc(Nc3ncc(Cl)c(Nc4ccsc4C(N)=O)n3)c(OC(F)F)c2)CC1 [Compound I-20, 3-((2-((4-(4-(tert-butyl)piperazin-1-yl)-2-(difluoromethoxy)phenyl)amino)-5-chloropyrimidin-4-yl)amino)thiophene-2-carboxamide] | 0.1 to 10 | 0.1 to 10 | 101 to 1000 |
| C[C@H]1CN(c2ccc(Nc3ncc(Cl)c(Nc4ccsc4C(N)=O)n3)c(OC(F)F)c2)CCN1C [Compound I-21, (S)-3-((5-chloro-2-((2-(difluoromethoxy)-4-(3,4-dimethylpiperazin-1-yl)phenyl)amino)pyrimidin-4-yl)amino)thiophene-2-carboxamide] | 0.1 to 10 | 0.1 to 10 | 11 to 100 |

More lines, now with the values ahead:

| IC50 (NUAK1) [nM] | IC50 (NUAK2 (h)) [nM] | IC50 (Aurora A) [nM] | Compound |
| --- | --- | --- | --- |
| 11 to 100 | 0.1 to 10 | 101 to 1000 | C[C@@H]1CN(c2ccc(Nc3ncc(Cl)c(Nc4sccc4C(N)=O)n3)c(OC(F)F)c2)C[C@H](C)N1C [Compound I-11, 2-((5-chloro-2-((2-(difluoromethoxy)-4-((3R,5S)-3,4,5-trimethylpiperazin-1-yl)phenyl)amino)pyrimidin-4-yl)amino)thiophene-3-carboxamide] |
| 11 to 100 | 0.1 to 10 | 11 to 100 | CC(C)N1CCN(c2ccc(Nc3ncc(Cl)c(Nc4sccc4C(N)=O)n3)c(OC(F)F)c2)CC1 [Compound I-13, 2-((5-chloro-2-((2-(difluoromethoxy)-4-(4-isopropylpiperazin-1-yl)phenyl)amino)pyrimidin-4-yl)amino)thiophene-3-carboxamide] |
| 11 to 100 | 11 to 100 | 101 to 1000 | Cc1csc(Nc2nc(Nc3ccc(N4CCN(C)CC4)cc3OC(F)F)ncc2Cl)c1C(N)=O [Compound I-15, 2-((5-chloro-2-((2-(difluoromethoxy)-4-(4-methylpiperazin-1-yl)phenyl)amino)pyrimidin-4-yl)amino)-4-methylthiophene-3-carboxamide] |
| 101 to 1000 | 11 to 100 | > 1000 | CN1CCN(c2ccc(Nc3ncc(Cl)c(Nc4sccc4C(N)=O)n3)c(OC(F)(F)F)c2)CC1 [Compound I-19, 2-((5-chloro-2-((4-(4-methylpiperazin-1-yl)-2-(trifluoromethoxy)phenyl)amino)pyrimidin-4-yl)amino)thiophene-3-carboxamide] |
